Data published in PMC7377239, “Cardiovascular Effects of Polychlorinated Biphenyls and Their Major Metabolites” (Environmental Health Perspectives, 2020).
Where two headings read alike, the source gives them in different places.

What was measured:
HUVECs = test: Tube formation (tubulogenesis) assay in HUVECs, 18 h; format: cell-based, human; settings: Homo sapiens, HUVEC, 18 h, HUVECs; for activity at 0.1 µM: 0.10 µM; for minimal effective concentration: top concentration 100.00 µM
Procedure: Similar to the cultivation of iCell®-endothelial cells, HUVEC maintenance and experimentation are detailed elsewhere ([Iwata et al. 2017]). Briefly, HUVECs were thawed, seeded, and grown in T75 tissue culture flasks in Medium 199 with EGM™-2 BulletKits™. HUVECs were incubated at regular cell culture conditions, 37°C and 5% CO2 , and passaged every 2–3 d using TrypLE™ Express. To ensure adequate endothelial function, experiments were performed with cells between passages 1 and 5.
(§1) Tube formation assays were performed on Geltrex™ LDEV-free reduced growth factor basement membrane using both iCell®-endothelial cells and HUVECs in 384-well format exactly as detailed in Iwata et al. ([2017]). Negative controls included media-only and vehicle control (i.e., 0.5% vol/vol DMSO in cell culture media) wells. Positive assay controls were consistent with previously published reports ([Iwata et al. 2017]) and included TAB ( 50μM ) as a cytotoxic control, and nocodazole ( 0.01–1μM ), suramin ( 0.5–50μM ), histamine ( 0.1–100μM ), and chloroquine ( 1–500μM ) as chemicals associated with specific effects on ECs. Each test chemical was screened in triplicate for each concentration. Briefly, for iCell®-endothelial cells, starvation media consisted of VascuLife® basal medium with 4 mM L-glutamine LifeFactor and 0.1% iCell®-endothelial cells medium supplement. To counter dilution effects, a 2× concentration of the HUVEC maintenance medium supplemented with additional VEGF was created (EGM™-2 BulletKits™ at 2× concentration; also the VEGF component was replaced with 12.5 ng/mL VEGF). Geltrex™ LDEV-free reduced growth factor basement membrane was thawed overnight and dispensed into 384-well plates ( 10μL/well ) with tapping and rotating to evenly coat. The plates were incubated for 1 h in a cell culture incubator at 37°C and 5% CO2 . A 2× PCB plate (containing all of the PCBs and metabolites in dose–response) was prepared in basal media and added, 25μL per well, to the Geltrex™ coated plates. On separate plates, cells were seeded 7,500 (iPSC- ECs) or 3,500 (HUVEC) cells/well. Cells were exposed to chemicals overnight at 37°C and 5% CO2 and stained with 3× concentration of calcein AM ( 25μL /well, 6μmol/L ) for 15 min before imaging. Images were captured at 4× magnification with the FITC filter (calcein AM). Images were analyzed with the angiogenesis module software within MetaXpress™ (Molecular Devices).
(§2) Phenotypic responses were quantitatively assessed using concentration–response modeling as detailed elsewhere ([Sirenko et al. 2017]). Briefly, phenotypic readouts were normalized to vehicle controls and fit to a four-parameter logistic model in R studio software (version 3.1.1; R Development Core Team). Following EPA guidance on dose–response modeling, a cutoff of one standard deviation across means of vehicle control (i.e., 0.5% vol/vol DMSO in cell culture media) wells was applied to determine the point-of-departure (POD) values ([U.S. EPA 2012]). In the absence of a concentration–response, the highest tested concentration (i.e., 100μM ) was assigned as “no observable adverse effect level.” The concentration–response assessment R script, as well as templates for vehicle and concentration–response data, are available as a supplement to Sirenko et al. ([2017]). The ability of physicochemical properties to predict differences in PODs were evaluated by multiregression and mixed-effects modeling using R.

[1] = system: iCell endothelial cells (human iPSC-derived ECs); test: Tube formation (tubulogenesis) assay in iCell endothelial cells, 18 h; format: cell-based; settings: Homo sapiens, Endothelial cell, iPSC-EC tube formation, 18 hr; for activity at 0.1 µM: 0.10 µM; for minimal effective concentration: top concentration 100.00 µM
Procedure: The culture conditions of iCell®-endothelial cells were as reported elsewhere ([Iwata et al. 2017]). Briefly, T75 flasks were coated with a fibronectin solution ( 3 μg/cm^2 ) followed by incubation for 1–2 h. Cells were thawed for 3 min in a 37°C water bath. Thawed cells were added to maintenance medium made of VascuLife VEGF Medium Complete Kit, excluding the supplied FBS, and iCell® Endothelial Cells Medium Supplement. The final formulation of the maintenance medium is detailed in ([Iwata et al. 2017]). The aliquoted fibronectin solution was aspirated from the T75 flasks, and cells were seeded at 1.0×10^4 cells/cm^2 . Cells were maintained at 37°C and 5% CO2 with media changes occurring every 2 d and passaged every 3–4 d using TrypLE™ Express. All experiments were conducted on cells between passages 1 and 5.
as §1, §2

[2] = 0.00 µM = 100.00, read-out: huvec.mtl.18hr
[3] = 0.00 µM = 100.00, read-out: huvec.tlps.18hr
[4] = 0.00 µM = 100.00, read-out: huvec.tta.18hr
[5] = 0.00 µM = 100.00, read-out: huvec.ttl.18hr
[6] = 0.00 µM control = 100.00, read-out: endo.mtl.18hr
[7] = 0.00 µM control = 100.00, read-out: endo.tlps.18hr
[8] = 0.00 µM control = 100.00, read-out: endo.tta.18hr
[9] = 0.00 µM control = 100.00, read-out: endo.ttl.18hr

## Oc1ccccc1-c1ccc(Cl)cc1 [2'-OH PCB3]
HUVECs; [2]
  activity at 0.01 µM: 96%
  activity at 0.1 µM: 77.3%
  activity at 1 µM: 95.4%
  activity at 10 µM: 92.4%
  activity at 100 µM: 73.9%
HUVECs; [3]
  activity at 0.01 µM: 85.8%
  activity at 0.1 µM: 49.3%
  activity at 1 µM: 65%
  activity at 10 µM: 77.5%
  activity at 100 µM: 35.5%
HUVECs; [4]
  activity at 0.01 µM: 84%
  activity at 0.1 µM: 42.9%
  activity at 1 µM: 71.9%
  activity at 10 µM: 65.8%
  activity at 100 µM: 64%
HUVECs; [5]
  activity at 0.01 µM: 89.1%
  activity at 0.1 µM: 47.4%
  activity at 1 µM: 75%
  activity at 10 µM: 69.6%
  activity at 100 µM: 49.6%
HUVECs; read-out: huvec.mtl.18hr POD
  minimal effective concentration: 100 µM
HUVECs; read-out: huvec.tlps.18hr POD
  minimal effective concentration: 0.57 µM
HUVECs; read-out: huvec.tta.18hr POD
  minimal effective concentration: 100 µM
HUVECs; read-out: huvec.ttl.18hr POD
  minimal effective concentration: 100 µM
[1]; [6]
  activity at 0.01 µM: 114%
  activity at 0.1 µM: 106%
  activity at 1 µM: 100%
  activity at 10 µM: 91.1%
  activity at 100 µM: 54.3%
[1]; [7]
  activity at 0.01 µM: 123%
  activity at 0.1 µM: 118%
  activity at 1 µM: 102%
  activity at 10 µM: 76.6%
  activity at 100 µM: 20.2%
[1]; [8]
  activity at 0.01 µM: 120%
  activity at 0.1 µM: 103%
  activity at 1 µM: 99.3%
  activity at 10 µM: 98%
  activity at 100 µM: 18.5%
[1]; [9]
  activity at 0.01 µM: 113%
  activity at 0.1 µM: 103%
  activity at 1 µM: 98.8%
  activity at 10 µM: 91.8%
  activity at 100 µM: 21.2%
[1]; read-out: endo.mtl.18hr POD
  minimal effective concentration: 13.4 µM
[1]; read-out: endo.tlps.18hr POD
  minimal effective concentration: 9.27 µM
[1]; read-out: endo.tta.18hr POD
  minimal effective concentration: 29.9 µM
[1]; read-out: endo.ttl.18hr POD
  minimal effective concentration: 23.1 µM
